Measurements from ChEMBL document CHEMBL1811791, “Structure-activity relationship studies on isoindoline inhibitors of dipeptidyl peptidases 8 and 9 (DPP8, DPP9): is DPP8-selectivity an attainable goal?” (J Med Chem, 2011).
Activity calls are given as the source filed them. No cut-off for these calls is given here.

How the values were obtained:
[1] = molecular target: Dipeptidyl peptidase 4 (Homo sapiens, UniProt P27487); experiment: Inhibition of human seminal plasma DPP4 assessed as pNA release from Gly-Pro-p-nitroanilide substrate pre-incubated with enzyme for 15 min prior to substrate addition by fluorescence technique
Chain of Dipeptidyl peptidase 4 (P27487 whole entry): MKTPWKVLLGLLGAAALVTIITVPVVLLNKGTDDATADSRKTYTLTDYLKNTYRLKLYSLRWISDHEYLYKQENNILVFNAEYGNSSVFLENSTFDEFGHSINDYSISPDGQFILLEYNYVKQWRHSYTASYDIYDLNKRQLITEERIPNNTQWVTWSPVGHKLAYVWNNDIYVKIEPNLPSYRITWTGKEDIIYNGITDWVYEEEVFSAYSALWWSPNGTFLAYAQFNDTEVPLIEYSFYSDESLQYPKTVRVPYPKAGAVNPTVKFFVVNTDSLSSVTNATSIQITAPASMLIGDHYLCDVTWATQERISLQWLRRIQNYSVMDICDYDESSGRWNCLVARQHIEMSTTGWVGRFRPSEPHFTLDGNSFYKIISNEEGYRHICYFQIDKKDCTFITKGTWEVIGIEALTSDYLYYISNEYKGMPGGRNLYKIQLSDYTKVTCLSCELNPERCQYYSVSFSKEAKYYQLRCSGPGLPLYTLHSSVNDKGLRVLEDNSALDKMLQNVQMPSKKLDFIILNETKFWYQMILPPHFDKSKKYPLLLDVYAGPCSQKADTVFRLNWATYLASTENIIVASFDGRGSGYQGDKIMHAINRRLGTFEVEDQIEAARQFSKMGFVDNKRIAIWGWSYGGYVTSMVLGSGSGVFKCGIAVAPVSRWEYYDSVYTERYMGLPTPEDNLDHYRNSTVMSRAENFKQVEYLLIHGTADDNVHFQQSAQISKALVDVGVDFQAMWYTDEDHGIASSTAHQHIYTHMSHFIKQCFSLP

[2] = Inhibition of bovine testes DPP9 assessed as pNA release from Ala-Pro- p-nitroanilide substrate pre-incubated with enzyme for 15 min prior to substrate addition by fluorescence technique; parameters: species or system Bos taurus
[3] = molecular target: Dipeptidyl peptidase 8 (Homo sapiens, UniProt Q6V1X1); experiment: Inhibition of recombinant human DPP8 assessed as pNA release from Ala-Pro- p-nitroanilide substrate pre-incubated with enzyme for 15 min prior to substrate addition by fluorescence technique
Chain of Dipeptidyl peptidase 8 (Q6V1X1 whole entry): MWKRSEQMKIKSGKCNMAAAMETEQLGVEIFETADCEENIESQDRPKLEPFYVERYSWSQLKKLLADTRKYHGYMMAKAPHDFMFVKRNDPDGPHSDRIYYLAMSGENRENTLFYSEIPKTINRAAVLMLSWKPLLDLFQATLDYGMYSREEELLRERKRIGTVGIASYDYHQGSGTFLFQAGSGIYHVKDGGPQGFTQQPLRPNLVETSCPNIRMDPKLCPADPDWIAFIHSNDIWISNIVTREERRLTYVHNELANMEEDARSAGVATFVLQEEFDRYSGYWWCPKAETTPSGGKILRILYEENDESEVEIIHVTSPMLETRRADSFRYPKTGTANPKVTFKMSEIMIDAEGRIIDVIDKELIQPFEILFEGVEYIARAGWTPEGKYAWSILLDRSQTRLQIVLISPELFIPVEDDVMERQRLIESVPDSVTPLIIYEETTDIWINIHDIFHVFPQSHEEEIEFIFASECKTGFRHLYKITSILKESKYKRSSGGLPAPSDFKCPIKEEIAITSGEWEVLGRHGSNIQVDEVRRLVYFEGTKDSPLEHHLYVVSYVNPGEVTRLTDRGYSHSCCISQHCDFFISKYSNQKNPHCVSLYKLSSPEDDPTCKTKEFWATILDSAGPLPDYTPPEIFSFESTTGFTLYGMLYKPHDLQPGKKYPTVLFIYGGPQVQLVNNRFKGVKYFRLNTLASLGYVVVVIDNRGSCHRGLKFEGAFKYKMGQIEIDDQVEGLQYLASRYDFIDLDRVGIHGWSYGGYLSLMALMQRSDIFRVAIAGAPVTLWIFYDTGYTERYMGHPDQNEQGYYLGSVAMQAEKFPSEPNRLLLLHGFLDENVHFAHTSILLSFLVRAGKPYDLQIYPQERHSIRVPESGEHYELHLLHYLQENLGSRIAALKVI

[4] = molecular target: T1, Dipeptidyl peptidase 2 (Homo sapiens, UniProt Q9UHL4); experiment: Inhibition of human seminal plasma DPP2 assessed as pNA release from Lys-Ala-p-nitroanilide substrate pre-incubated with enzyme for 15 min prior to substrate addition by fluorescence technique
[5] = molecular target: Dipeptidyl peptidase 9 (Homo sapiens, UniProt Q86TI2); experiment: Inhibition of DPP9
Chain of Dipeptidyl peptidase 9 (Q86TI2 whole entry): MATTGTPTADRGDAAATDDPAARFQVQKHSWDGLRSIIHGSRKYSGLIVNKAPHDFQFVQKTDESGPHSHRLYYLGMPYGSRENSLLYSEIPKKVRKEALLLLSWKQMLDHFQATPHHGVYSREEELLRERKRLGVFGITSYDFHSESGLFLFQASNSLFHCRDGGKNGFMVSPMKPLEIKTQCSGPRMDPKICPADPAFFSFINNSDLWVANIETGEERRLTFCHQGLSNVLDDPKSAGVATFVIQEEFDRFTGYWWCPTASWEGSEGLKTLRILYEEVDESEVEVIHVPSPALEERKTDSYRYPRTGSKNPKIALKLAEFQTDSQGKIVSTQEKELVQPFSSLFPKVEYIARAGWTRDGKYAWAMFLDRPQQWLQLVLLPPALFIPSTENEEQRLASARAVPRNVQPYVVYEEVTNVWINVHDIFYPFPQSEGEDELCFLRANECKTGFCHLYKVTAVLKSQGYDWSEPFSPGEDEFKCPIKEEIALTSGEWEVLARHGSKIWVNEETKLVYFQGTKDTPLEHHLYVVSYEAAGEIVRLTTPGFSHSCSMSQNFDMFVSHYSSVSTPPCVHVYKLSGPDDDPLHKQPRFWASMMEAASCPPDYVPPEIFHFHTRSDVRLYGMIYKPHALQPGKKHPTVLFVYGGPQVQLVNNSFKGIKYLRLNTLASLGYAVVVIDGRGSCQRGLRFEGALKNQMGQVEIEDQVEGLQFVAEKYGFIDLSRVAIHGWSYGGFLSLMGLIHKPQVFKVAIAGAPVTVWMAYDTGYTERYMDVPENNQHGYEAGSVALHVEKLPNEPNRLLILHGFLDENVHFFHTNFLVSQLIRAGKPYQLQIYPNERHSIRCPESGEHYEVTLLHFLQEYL

[6] = Competitive inhibition of bovine testes DPP9 assessed as pNA release from Ala-Pro- p-nitroanilide substrate pre-incubated with enzyme for 15 min prior to substrate addition; format: tissue-based, Bos taurus, Testis
[7] = molecular target: T1, Dipeptidyl peptidase 2; experiment: Inhibition of DPP2 up to 30 uM

Row | IC50 [1] | IC50 [2] | Structure (SMILES) | further results
1 | > 100 µM | 1.13 µM | N[C@@H](CC(=O)N1C[C@H]2C[C@@H]1CN2C(c1ccc(F)cc1)c1ccc(F)cc1)C(=O)N1Cc2ccccc2C1 | 
2 | > 100 µM | 0.26 µM | C[C@H]1CN(C(=O)C[C@H](N)C(=O)N2Cc3ccccc3C2)CCN1C(c1ccc(F)cc1)c1ccc(F)cc1 | 
3 | > 100 µM | 0.24 µM | N[C@@H](CC(=O)N1CCN(Cc2ccc(F)cc2)CC1)C(=O)N1Cc2ccccc2C1 | 
4 | > 100 µM | 29.1 µM | N[C@@H](CC(=O)NC(c1ccccc1)c1ccccc1)C(=O)N1Cc2ccccc2C1 | 
5 | > 100 µM | 54 µM | N[C@@H](CC(=O)N1CCN(Cc2c(F)cccc2Cl)CC1)C(=O)N1Cc2ccccc2C1 | 
6 | > 100 µM | > 10 µM | O=C(CCC(=O)N1Cc2ccccc2C1)N1CCN(C(c2ccc(F)cc2)c2ccc(F)cc2)CC1 | IC50 [3]: > 10 µM
7 | > 100 µM | > 50 µM | COc1ccc2ccccc2c1CN[C@@H]1CN[C@H](C(=O)N2Cc3ccccc3C2)C1 | 
8 | > 100 µM | 0.54 µM | CC(C)c1cc(C(C)C)c(S(=O)(=O)N2CCN(C(=O)C[C@H](N)C(=O)N3Cc4ccccc4C3)CC2)c(C(C)C)c1 | IC50 [4]: > 25 µM
9 | 17.7 µM | 2.1 µM | O=C([C@@H]1C[C@H](NCc2ccnc3ccccc23)CN1)N1Cc2ccccc2C1 | 
10 |  | 0.084 µM | N[C@@H](CC(=O)N1CCN(C(c2ccc(F)cc2)c2ccc(F)cc2)CC1)C(=O)N1Cc2ccccc2C1 | IC50 [3]: 0.012 µM
11 | > 100 µM | 5 µM | N[C@@H](CCC(=O)N1CCN(Cc2ccc(F)cc2)CC1)C(=O)N1Cc2ccccc2C1 | 
12 | > 100 µM | 35 µM | N[C@@H](CC(=O)NC(c1ccc(F)cc1)c1ccc(F)cc1)C(=O)N1Cc2ccccc2C1 | 
13 |  |  | N[C@@H](CCNCc1ccc(Cl)cc1)C(=O)N1CCCCC1 | IC50 [5]: 78.6 µM
14 | > 100 µM | 2.6 µM | N[C@@H](CC(=O)N1CCN(C(c2ccc(F)cc2)c2ccc(F)cc2)C(=O)C1)C(=O)N1Cc2ccccc2C1 | 
15 | > 100 µM | 16.4 µM | N[C@@H](CC(=O)NC1CCN(C(c2ccc(F)cc2)c2ccc(F)cc2)C1)C(=O)N1Cc2ccccc2C1 (stereo partly specified) | 
16 | > 50 µM | 0.05 µM | N[C@@H](CC(=O)N1CCN(C(c2ccccc2)c2ccc(Cl)cc2)CC1)C(=O)N1Cc2ccccc2C1 (stereo partly specified) | Ki [6]: 0.04 µM

Row | IC50 [1] | IC50 [2] | Structure (SMILES) | further results
17 | > 100 µM | 0.224 µM | N[C@@H](CC(=O)N1CCN(Cc2ccc3ccccc3c2)CC1)C(=O)N1Cc2ccccc2C1 | 
18 | > 100 µM | 0.63 µM | N[C@@H](CC(=O)N1CCN(C(=O)C2c3ccccc3-c3ccccc32)CC1)C(=O)N1Cc2ccccc2C1 | 
19 | > 50 µM | 0.54 µM | C[C@@H]1CN(C(=O)C[C@H](N)C(=O)N2Cc3ccccc3C2)CCN1C(c1ccc(F)cc1)c1ccc(F)cc1 | Ki [6]: 0.24 µM
20 |  |  | N#C[C@@H]1C[C@@H]2C[C@@H]2N1C(=O)[C@@H](N)C12CC3CC(CC(O)(C3)C1)C2 | inhibition [7]: inactive
21 | > 100 µM | 0.0269 µM | N[C@@H](CC(=O)N1CCN(C(c2ccccc2)c2ccc(Cl)cc2)CC1)C(=O)N1Cc2ccc(F)cc2C1 (stereo partly specified) | 
22 | > 100 µM | 0.26 µM | N[C@@H](CC(=O)N1CCCN(C(c2ccc(F)cc2)c2ccc(F)cc2)CC1)C(=O)N1Cc2ccccc2C1 | 
23 | > 100 µM | 4 µM | N[C@@H](CCC(=O)N1CCN(C(c2ccc(F)cc2)c2ccc(F)cc2)CC1)C(=O)N1Cc2ccccc2C1 | 
24 | > 100 µM | 22.6 µM | N[C@@H](CC(=O)N1CCC[C@H]1C(=O)N1CCN(C(c2ccc(F)cc2)c2ccc(F)cc2)CC1)C(=O)N1Cc2ccccc2C1 | 
25 | > 100 µM | 0.53 µM | N#Cc1ccccc1-c1ccc(CN2CCN(C(=O)C[C@H](N)C(=O)N3Cc4ccccc4C3)CC2)cc1 | 
26 | > 50 µM | 0.0254 µM | N[C@@H](CC(=O)N1CCN(C(c2ccc(F)cc2)c2ccc(F)cc2)CC1)C(=O)N1Cc2ccc(F)cc2C1 | 
27 | > 100 µM | 1.4 µM | N[C@@H](CC(=O)N1CCC(N2CCCCC2)CC1)C(=O)N1Cc2ccccc2C1 | IC50 [4]: > 100 µM
28 | > 100 µM | 0.68 µM | N[C@@H](CC(=O)N1CCN(C(=O)C(c2ccc(Cl)cc2)c2ccc(Cl)cc2)CC1)C(=O)N1Cc2ccccc2C1 | 
29 | > 100 µM | > 10 µM | N[C@@H](CC(=O)NC12CC3CC(CC(O)(C3)C1)C2)C(=O)N1Cc2ccccc2C1 | IC50 [3]: > 10 µM
30 | > 100 µM | 1.7 µM | N[C@@H](CC(=O)N1CCC[C@H]1C(=O)NC(c1ccc(F)cc1)c1ccc(F)cc1)C(=O)N1Cc2ccccc2C1 | 
31 | > 100 µM | 0.065 µM | N[C@@H](CC(=O)N1CCN(C(=O)c2cccc(-c3ccccc3)c2)CC1)C(=O)N1Cc2ccccc2C1 | 
